Holding throughout (format): cell-based
The target in assay [1] is T1, NLRP3 inflammasome (Rattus norvegicus, UniProt D4A523).
T1 construct: host or cells: rat PBMCs
Description: Inhibition of IL-1β production in rat PBMCs stimulated by LPS + nigericin. As to conditions: Rat PBMC, read-out: Geo Av IC50, IL-1β. From the text:
(§1) Inflammasome activation and whole blood assays were essentially carried out as described earlier. Details can be found in the supplementary information section accompanying this publication. A protocol for blood draws from healthy volunteers and use of the blood in preclinical assays was approved by Western Institutional Review Board, Inc (Puyallup, WA, USA). Informed consent was obtained from each donor prior to the first blood draw.
(§2) 4H). MS: m/z 433.1 (M+H+).
(§3) Inflammasome activation.PBMCs (iXCells Biotechnologies, San Diego, USA) were thawed the day before the assay and seeded in complete medium (RPMI 1640 medium with GlutaMAX, supplemented with an additional 2.5 g/L D-glucose, 10% Fet al Bovine Serum, 100 mM Sodium Pyruvate, 1% Penicillin/Streptomycin, 10 mM HEPES and 0.05 mM β -mercaptoethanol) in polystyrene V-bottom 96-well plates at 5x10^4 cells per well and incubated overnight at 37°C with 5% CO 2. […]
(§4) flagellin, prepared in Opt iMEM and combined with Lipofectamine 2000. […] After priming Nlrp3 -/- mBMDMs with 100 ng/mL of LPS for 3- 5 h, cells were exposed to 100 ng/mL L18- MDP and incubated overnight.At the end of the incubation period of the assays above, plates were briefly centri fuged and hal f of the cell culture supern atant remo ved and either analysed i mmediately or stored at - 80°C for subs equent cytokine […]

The target in assay [2] is T2, NLRP3 inflammasome assembly (ASC speck) (Mus musculus, UniProt Q8R4B8).
T2 construct: host or cells: mouse PBMCs; mouse bone-marrow derived macrophages; mouse whole blood (C57BL/6 in the ex vivo study)
T2 sequence (Q8R4B8 whole entry): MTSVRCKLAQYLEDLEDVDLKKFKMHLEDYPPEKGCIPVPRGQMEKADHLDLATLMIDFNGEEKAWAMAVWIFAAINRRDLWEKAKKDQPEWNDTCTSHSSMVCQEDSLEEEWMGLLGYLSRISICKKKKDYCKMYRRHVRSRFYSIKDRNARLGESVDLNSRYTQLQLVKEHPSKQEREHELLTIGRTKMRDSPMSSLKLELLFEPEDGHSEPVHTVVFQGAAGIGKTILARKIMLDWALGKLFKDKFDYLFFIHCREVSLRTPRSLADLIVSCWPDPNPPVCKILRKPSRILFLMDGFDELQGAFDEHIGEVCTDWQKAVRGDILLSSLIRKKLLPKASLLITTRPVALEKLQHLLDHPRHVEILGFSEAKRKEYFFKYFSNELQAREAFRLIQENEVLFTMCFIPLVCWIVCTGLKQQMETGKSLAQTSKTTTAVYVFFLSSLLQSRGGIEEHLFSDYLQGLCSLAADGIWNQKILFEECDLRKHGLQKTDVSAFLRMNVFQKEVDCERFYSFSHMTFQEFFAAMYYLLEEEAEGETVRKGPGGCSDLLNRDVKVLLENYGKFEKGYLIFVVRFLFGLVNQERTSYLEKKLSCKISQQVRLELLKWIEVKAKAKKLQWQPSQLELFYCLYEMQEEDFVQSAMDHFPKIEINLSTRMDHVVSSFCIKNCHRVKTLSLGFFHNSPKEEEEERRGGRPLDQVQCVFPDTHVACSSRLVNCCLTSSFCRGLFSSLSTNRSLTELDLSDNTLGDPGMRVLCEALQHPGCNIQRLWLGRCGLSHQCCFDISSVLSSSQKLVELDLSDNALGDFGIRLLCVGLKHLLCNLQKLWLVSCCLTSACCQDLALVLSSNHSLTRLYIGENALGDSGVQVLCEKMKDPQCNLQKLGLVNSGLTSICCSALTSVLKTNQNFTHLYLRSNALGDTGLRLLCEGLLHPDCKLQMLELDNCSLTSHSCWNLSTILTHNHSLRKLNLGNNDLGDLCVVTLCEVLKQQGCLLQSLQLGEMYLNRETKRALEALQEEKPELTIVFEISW
Description: Inhibition of ASC speck formation by immunofluorescence in LPS + nigericin treated mouse BMDMs. The method, then: Mouse BMDMs (2.5 × 10^4 cells/well) were plated in Collagen-IV coated 96-well plates. On the day of the assay, cells were washed with serum-free media then primed with 100 ng/mL LPS for 3 h in DMEM/F12 (1:1) containing L-glutamine. JT002 or DMSO was added to each well and incubated at 37 °C for 30 min prior to stimulation with 10 μM nigericin for 1.5 h. Cells were briefly centrifuged, rinsed with PBS, and fixed with 4% formaldehyde in PBS overnight at 4 °C. Cells were blocked and permeabilized in PBS with 10% goat serum, 1% FBS, 0.5% Triton X-100 for 30 min at 37 °C and incubated with ASC antibody (Millipore-Sigma, Cat #04-147) overnight at 4 °C. Cells were incubated with anti-mouse IgG Alexa Fluor-488 for 1 h at 37 °C. Nuclei were stained with Hoechst 33342 in PBS for 5 min and imaged using a CellInsight CX7 High-Content Screening Platform (ThermoFisher) at Phenovista Biosciences (San Diego, CA, USA).

Assay [3] addresses NLRP3 inflammasome (Homo sapiens, UniProt Q96P20). Nature of the assay: Inhibition of IL-1β, IL-18 and IL-1α production in human PBMCs stimulated by LPS + ATP. Also on record: host or cells: human PBMCs; fresh heparinised human whole blood from healthy volunteers. As to conditions: Human PBMC. The procedure:
as §1
Cell viability was determined by addition of an equal volume of CellTiter-Glo® 2.0 reagent (Promega) to the remaining cells/supernatant in each well. Intracellular Caspase-1 activity was measured using the Caspase-Glo® assay (Promega) according to the manufacturer’s instructions. The biochemical capsase-1 assay was conducted at Reaction Biology Corporation (Malvern, USA). Human IL-1β, IL-1α, and TNFα and mouse IL-1β were measured in cell culture supernatants using homogeneous time resolved fluorescence assay kits (HTRF, Cisbio, Codolet, France). Human IL-18 was measured in cell culture supernatants using an ELISA kit (R&D Systems, Minneapolis, MN, USA). Plasma IL-1β concentrations were determined by Quantikine® ELISA (R&D Systems, Minneapolis, MN).
as §2, §3, §4

Read-outs that look alike come from different tables or passages of the source.

Sequence of NLRP3 inflammasome (Homo sapiens, UniProt Q96P20) (Q96P20 whole entry): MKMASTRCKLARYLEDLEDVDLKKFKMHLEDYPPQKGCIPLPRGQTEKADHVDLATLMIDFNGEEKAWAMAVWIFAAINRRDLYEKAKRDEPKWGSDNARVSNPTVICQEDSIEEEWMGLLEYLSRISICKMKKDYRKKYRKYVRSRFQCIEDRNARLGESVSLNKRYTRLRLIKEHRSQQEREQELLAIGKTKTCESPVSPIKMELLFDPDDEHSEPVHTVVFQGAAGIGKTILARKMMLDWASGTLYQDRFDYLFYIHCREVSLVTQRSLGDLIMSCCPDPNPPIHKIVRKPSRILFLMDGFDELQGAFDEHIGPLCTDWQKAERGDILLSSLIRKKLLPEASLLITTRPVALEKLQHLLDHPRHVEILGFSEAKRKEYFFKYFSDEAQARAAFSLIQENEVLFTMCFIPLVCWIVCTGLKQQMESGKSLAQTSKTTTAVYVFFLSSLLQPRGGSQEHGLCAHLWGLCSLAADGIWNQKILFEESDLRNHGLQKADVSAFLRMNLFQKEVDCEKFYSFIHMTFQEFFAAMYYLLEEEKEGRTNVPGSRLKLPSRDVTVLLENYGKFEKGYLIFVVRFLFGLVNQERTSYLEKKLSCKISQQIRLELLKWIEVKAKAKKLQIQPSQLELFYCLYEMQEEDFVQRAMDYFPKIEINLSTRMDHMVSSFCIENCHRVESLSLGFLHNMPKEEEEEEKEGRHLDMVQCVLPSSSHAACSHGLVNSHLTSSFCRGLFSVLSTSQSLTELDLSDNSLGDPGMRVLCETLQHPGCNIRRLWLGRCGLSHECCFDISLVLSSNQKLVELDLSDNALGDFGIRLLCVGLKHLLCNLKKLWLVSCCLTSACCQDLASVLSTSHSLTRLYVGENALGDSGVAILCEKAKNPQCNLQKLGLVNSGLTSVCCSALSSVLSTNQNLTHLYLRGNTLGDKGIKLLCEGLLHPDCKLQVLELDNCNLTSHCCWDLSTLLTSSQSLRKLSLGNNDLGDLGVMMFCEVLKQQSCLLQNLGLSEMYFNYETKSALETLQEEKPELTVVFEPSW
T1 sequence (D4A523 whole entry): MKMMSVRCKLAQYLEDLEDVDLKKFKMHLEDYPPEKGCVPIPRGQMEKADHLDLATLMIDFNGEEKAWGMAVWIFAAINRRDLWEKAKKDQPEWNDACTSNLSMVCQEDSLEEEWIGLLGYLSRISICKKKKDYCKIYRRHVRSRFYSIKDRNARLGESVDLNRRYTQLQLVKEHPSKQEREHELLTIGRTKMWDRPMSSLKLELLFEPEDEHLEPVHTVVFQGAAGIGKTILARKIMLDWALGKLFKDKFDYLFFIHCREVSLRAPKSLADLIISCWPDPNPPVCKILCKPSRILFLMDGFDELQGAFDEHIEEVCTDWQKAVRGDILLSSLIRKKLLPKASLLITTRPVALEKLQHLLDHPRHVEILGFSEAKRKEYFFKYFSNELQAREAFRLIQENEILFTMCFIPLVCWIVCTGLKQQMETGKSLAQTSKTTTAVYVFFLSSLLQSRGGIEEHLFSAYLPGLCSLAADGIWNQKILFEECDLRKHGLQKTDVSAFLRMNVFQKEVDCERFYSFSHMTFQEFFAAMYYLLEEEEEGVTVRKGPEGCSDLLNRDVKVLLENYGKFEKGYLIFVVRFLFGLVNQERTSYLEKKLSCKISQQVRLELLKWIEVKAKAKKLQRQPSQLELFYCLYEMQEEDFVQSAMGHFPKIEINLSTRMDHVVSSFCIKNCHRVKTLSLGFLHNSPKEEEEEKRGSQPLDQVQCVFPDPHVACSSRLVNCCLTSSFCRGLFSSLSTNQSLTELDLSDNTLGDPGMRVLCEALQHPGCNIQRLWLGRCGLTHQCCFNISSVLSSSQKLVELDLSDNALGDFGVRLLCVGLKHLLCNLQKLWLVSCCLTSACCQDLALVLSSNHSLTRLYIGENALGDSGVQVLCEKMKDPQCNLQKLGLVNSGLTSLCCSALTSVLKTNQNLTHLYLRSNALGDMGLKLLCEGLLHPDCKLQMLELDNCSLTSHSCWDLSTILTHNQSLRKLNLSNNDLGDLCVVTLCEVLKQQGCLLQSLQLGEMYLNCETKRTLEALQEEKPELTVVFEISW

For `CO[C@@H]1COc2c(S(=O)(=O)NC(=O)Nc3c4c(cc5c3CCC5)CCC4)cnn2C1` [JT002], the IC50 in assay [1] came to 159 nM; in assay [2] (Mouse BMDM, read-out: Geo Av IC50, ASC specks), 3 nM; in assay [3] (read-out: Geo Av IC50, IL-1α), 3 nM; in assay [3] (read-out: Geo Av IC50, IL-1β), 4 nM; in assay [3] (read-out: Geo Av IC50, IL-18), 4 nM. The ASC speck formation entry in assay [2] (mBMDMs, 2 µM JT002 prior to NLRP3 activation) is “completely prevented ASC speck formation”.

These data come from PMC10439952, “JT002, a small molecule inhibitor of the NLRP3 inflammasome for the treatment of autoinflammatory disorders” (Scientific Reports, 2023).
